Experimental data from PMC10477886, “Adamantaniline Derivatives Target ATP5B to Inhibit Translation of Hypoxia Inducible Factor‐1α” (Advanced Science, 2023).

Assays:
Format in all cases: cell-based, human
[1] = tested on: HIF‐1α transcriptional activity; test: dual‐luciferase assay (HRE‐Firefly Luciferase / renilla) of HIF‐1α transcriptional activity in HEK293T cells
How it was run: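 Stable HEK293T line carrying HRE-firefly luciferase, renilla and HIF-1α P402A/P564A mutant, giving HIF-1α expression under normoxia. Compounds incubated 24 h at 37 °C; firefly/renilla luciferase ratio read as HIF-1α transcriptional activity.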

[2] = tested on: HIF‐1α protein synthesis; test: AHA labeling assay of nascent HIF‐1α protein; conditions: HEK293T, hypoxia, 10 or 20 µM
Method: Lysosome and ubiquitin/proteasome systems are two main pathways for cellular protein degradation.^[ [49], [50] ^] MG‐132 and PS‐341 are potent, selective, and reversible proteasome inhibitors, chloroquine (CQ) and NH4Cl are autophagy inhibitors that inhibit lysosomal degradation by increasing lysosomal pH. MG‐132, PS‐341, CQ, NH4Cl, and DMSO at indicated concentrations were added to HEK293T cells for 6 h followed by treatment with DMSO or 10 µM HI‐101 for another 12 h under hypoxia condition. Cells were then collected, lysed, and immunoblotted to detect HIF‐1α protein level. […] In order to verify whether HI‐101 inhibited the synthesis of HIF‐1α protein, L‐azidohomoalanine (AHA) labeling assay^[ [51] ^] was carried out. The nascent protein was labeled by AHA incorporation, enriched by click reaction, and detected by anti‐biotin antibody.
HEK293T cells seeded in 10 cm dishes were added with DMSO or HI‐101 at concentrations 10 or 20 µM, then cultured in hypoxia incubator. The next day, cells were washed twice with PBS and incubated in DMEM without methionine for 4 h. At the same time, add […] (AHA) to all groups, and the positive control group treatment with cycloheximide (CHX). AHA concentration and incubation time were 50 µM and 4 h. […]

[3] = tested on: HIF‐1α translation; test: polysome profile analysis; conditions: HEK293T, 12 h with MG‐132, hypoxia
Method: Given that HI‐101 affected neither the transcription of HIF‐1α nor its degradation, we next tested whether HI‐101 regulated HIF‐1α translation. Polysome profile analysis is a commonly used method for studying translation process by separating polysomes and ribosomal subunits using a sucrose density gradient (SDG).^[ [53] ^] After treating with HI‐101 or DMSO for 12 h co‐incubated with MG‐132 under hypoxia condition, HEK293T cells were collected and polysome‐bound and polysome‐free mRNAs were isolated by using 10–50% sucrose gradient fractionation.
Polysome RNA preparations and analysis were carried out as previously described.^[ [60] ^] Briefly, cells were seeded in 10 cm dishes, and washed with cold PBS containing 100 µg mL^−1 cycloheximide, and then lysed in a hypotonic lysis buffer [5 mM tris‐HCl (pH 7.5), 2.5 mM MgCl2, 1.5 mM KCl, 100 µg mL^−1 cycloheximide, 2 mM DTT, 0.5% Triton X‐100, and 0.5% sodium deoxycholate]. A lysate sample was used to isolate the cytoplasmic RNA using TRIzol (Invitrogen). […] Gradients were fractionated, and the optical density at 260 nm was continuously detected by a UV detector and fraction collector (Teledyne ISCO). […] Fractions with mRNA associated with polysomes were pooled and HIF‐1α mRNA abundance was detected by RT‐PCR amplification in each fraction of the polysome gradient. […]

O=C(Nc1ccc(C23CC4CC(CC(C4)C2)C3)cc1)c1cccc(Cl)c1 [1‐3a, N‐(4‐((3r,5r,7r)‐Adamantan‐1‐yl)Phenyl)−3‐Chlorobenzamide]
inhibition at 10 µM ([1]; Homo sapiens, HEK-293T, 10 µM, incubation 24 h, HEK293T, mean ± s.d. (n = 3), read-out: Inhibition rate [%] @ 10 µM): 81.4 ± 0.9%
IC50 ([1]; Homo sapiens, HEK-293T, HEK293T dual‐luciferase, mean ± s.d. (n = 3)): 2000 ± 300 nM
HIF‐1α transcriptional activity (luciferase), in words ([1]; hit confirmation): significantly inhibited HIF‐1α transcriptional activity
HIF‐1α protein synthesis (nascent, AHA labeled) [2]: significantly inhibited
HIF‐1α translation [3]: efficiently inhibited HIF‐1α translation
